Measured values published in US9180088B2, “Fulvestrant formulations” (SCIDOSE, LLC, priority 2008, dated 2015).
≈ marks a conversion by molar mass, not a printed value.

Experiments:
subplanar paw of the rat = assay: rat paw lick test; format: in vivo; details: 0.1 ml of solvent system injected on the subplanar paw of the rat
Experimental: In this method 0.1 ml of the solvent system is injected on the subplanar paw of the rat and the irritation is measured by the number of time that rat licks its paw over 15 minutes. This is quite quantitative and the number licks correlate to the irritation of the system.

[1] = solubility of fulvestrant in solvents; format: physicochemical

Glycofurol [Test # 02]
IRRITABILITY (rating) (subplanar paw of the rat): No Irritation | number of times rat licks its paw in first 15 minutes (subplanar paw of the rat; 15 minutes): Zero lick in first 15 minutes

C[C@]12CC[C@@H]3c4ccc(O)cc4C[C@@H](CCCCCCCCC[S+]([O-])CCCC(F)(F)C(F)(F)F)[C@H]3[C@@H]1CC[C@@H]2O (stereo partly drawn) [fulvestrant, 7-alpha-[9-(4,4,5,5,5-pentafluoropentylsulphinyl)nonyl]estra-1,3,5-(10)-triene-3,17-beta-diol]
solubility ([1]; 20 mg/ml Lutrol in PEG 400 (2% Lutrol in PEG 400), organic solvent or mixture, in 20 mg/ml of Lutrol in PEG 400 (2% Lutrol in PEG 400)): 66.7 mg/mL (≈ 110 mM) | solubility ([1]; 20 mg/ml Lutrol in propylene glycol, organic solvent or mixture, in 20 mg/ml of Lutrol in PG): 22.7 mg/mL (≈ 37.4 mM) | solubility ([1]; 1,4-dioxane, organic solvent or mixture, in 1,4 Dioxan): 833 mg/mL (≈ 1370 mM) | solubility ([1]; 10% ethanol/0.9% benzyl alcohol/30% PEG 400 in water (v/v), aqueous with cosolvent or surfactant or cyclodextrin, in 10% Ethanol/0.9% Benzylalcohol/30% PEG 400 in Water (v/v)): 10 mg/mL (≈ 16.5 mM) | solubility ([1]; 20-50 mg/ml Lutrol in dihydrolipoic acid, organic solvent or mixture, in 20-50 mg/ml Lutrol in dihydrolipoic acid): > 350 mg/mL | solubility ([1]; 50% dihydrolipoic acid/50% lipoic acid, organic solvent or mixture, in 50% dihydrolipoic acid/50% lipoic acid): > 350 mg/mL | solubility ([1]; Lutrol/PEG400/propylene glycol blends, organic solvent or mixture, in the Lutrol/PEG400/propylene glycol blends): 50 mg/mL (≈ 82.4 mM) | solubility ([1]; N-methylpyrrolidone, organic solvent or mixture, in N-Methylpyrrolidone): 864 mg/mL (≈ 1420 mM) | solubility ([1]; PEG 400 + propylene glycol (1:1), organic solvent or mixture, in PEG 400 + PG (1:1)): 50 mg/mL | solubility ([1]; PEG-400 (neat), organic solvent or mixture, in PEG-400 (neat)): 22.5 mg/mL (≈ 37.1 mM) | solubility ([1]; aqueous with cosolvent or surfactant or cyclodextrin, in 10% Ethanol/0.9% Benzylalcohol/30% PEG 400/20 mg per ml Lecithin, in Water): 5 mg/mL (≈ 8.24 mM) | solubility ([1]; dihydrolipoic acid, organic solvent or mixture, in Dihydrolipoic acid): > 450 mg/mL | solubility ([1]; ethyl acetate, organic solvent or mixture, in Ethyl acetate): 7.8 mg/mL (≈ 12.9 mM) | solubility ([1]; glycofurol, organic solvent or mixture, in Glycofurol): 400 mg/mL (≈ 659 mM) | solubility of fulvestrant ([1]; in 0.9% Benzyl alcohol in Water): Insoluble | solubility of fulvestrant ([1]; in 2% Benzyl alcohol in Water): Insoluble | solubility of fulvestrant ([1]; in 10% Ethanol): Insoluble | solubility of fulvestrant ([1]; in 10% Ethanol (in water) + PEG 400 (1:1)): Insoluble | solubility of fulvestrant ([1]; in 30% Ethanol (in water)): Insoluble | solubility of fulvestrant ([1]; in 50% Ethanol (in water)): Insoluble | solubility of fulvestrant ([1]; in Aq.PVP K-30 solution (40 mg in 2 ml distil water)): Insoluble | solubility of fulvestrant ([1]; in Cetylalcohol): 20 mg/1 g | solubility of fulvestrant ([1]; in Fat emulsion): Insoluble | solubility of fulvestrant ([1]; in Hydroxy Ethyl Starch (10%)): Insoluble | solubility of fulvestrant ([1]; in Lauryl macrogol - 32 glyceride (Gelucire 44/14 by Gattefosse)): Insoluble | solubility of fulvestrant ([1]; in Lecithin (1%)): Insoluble | solubility of fulvestrant ([1]; in Peanut Oil): Insoluble | solubility of fulvestrant ([1]; in Poloxamer(Lutrol f-68) (2% sol in water)): Insoluble | solubility of fulvestrant ([1]; in Sodium Citrate (30 Mmol)): Insoluble | solubility of fulvestrant ([1]; in TPGS 1000): Insoluble | solubility of fulvestrant ([1]; in Tween 20 (1%)): Insoluble | solubility of fulvestrant ([1]; in Tween 80 (1%)): Insoluble | solubility ([1]; organic solvent or mixture, in 0.7 ml of (20 mg/ml of Lutrol in PEG 400) + 0.3 ml of Propylene Glycol): 50 mg/mL | solubility ([1]; organic solvent or mixture, in 0.8 ml of (20 mg/ml of Lutrol in PEG 400) + 0.2 ml of Propylene Glycol): 50 mg/mL | solubility ([1]; organic solvent or mixture, in 10% Ethanol/0.9% Benzylalcohol in PEG 400 (V/V, QS with PEG 400)): 10 mg/mL (≈ 16.5 mM) | solubility ([1]; propylene glycol (neat), organic solvent or mixture, in Propylene Glycol (neat)): 4 mg/mL (≈ 6.59 mM) | solubility ([1]; t-butanol, organic solvent or mixture, in T-butanol): 194 mg/mL (≈ 320 mM)
